Measured values from patent US7341715B2, “Method and agents on the basis of 2-mercaptopropionic acid amides for durable hair forming and a method for producing same” (Wella AG, priority 2000, dated 2008).

Experiments:
[1] = Comparison of the stabilities of the waves: wave stability (WSN); conditions: waving solution 87 mmoles/100 g reducing agent, standardized to glycerin monothioglycolate solution pH 9 = 100%; for WSN pH = 7: pH 7, 20 minutes at 50° C.; for WSN pH = 8: pH 8, 20 minutes at 50° C.; for WSN pH = 9: pH 9, 20 minutes at 50° C.
Experimental: The waving effectiveness of the 1-mercaptopropionamides was determined using glycerin monothioglycolate as comparison substance with the help of waving solutions at a pH of 7, 8 and 9. For this purpose, pre-bleached and therefore damaged counting hair strands (consisting of about 100 hairs) from Middle European hair was wound wet onto standardized spiral curlers (internal diameter of 3 millimeters) and, after being conditioned in an air-conditioned room (temperature: 20° C., relative humidity: 65%), treated with a solution of the reducing agent, containing 87 mmoles/100 g and adjusted to the respective pH. The amount of waving liquid applied was calculated from the ratio of 1:1.2 (1 g of hair: 1.2 mL of waving liquid). A period of action of 20 minutes at a temperature of 50° C. was selected. Subsequently, the hair was fixed with a peroxide-containing material, removed from the curlers and hung up for 4 hours in water (waterbath temperature: 40° C.).
The wave stability (WSN) is calculated from the following formula:
[formula] • 1o=total length of the not shaped, stretched strands (16.5 cm) • 1t=length of the strands, removed from the curlers and suspended, after 240 minutes • 1l=length of the shaped strands on curlers (for curlers with an internal diameter of 3 mm, 1l=35 mm)
As a standard, strands were treated with a glycerin monothioglycolate solution, the pH of which had been adjusted to a value of 9. The standardized wave stabilities, given below in Table 1, relate to this standard solution (pH=9), the wave stability (WSN) of which has been set at 100%.

pKa value = type: physicochemical

CC(S)C(=O)NCCN (stereo not shown) [N-(2-Aminoethyl)-2-mercaptopropionamide]
WSN pH = 7 [1]: 61%
WSN pH = 8 [1]: 81%
WSN pH = 9 [1]: 87%

CC(O)CNC(=O)C(C)S (stereo not shown) [N-(2-Hydroxypropyl)-2-mercaptopropionamide]
WSN pH = 7 [1]: 78%
WSN pH = 8 [1]: 94%
WSN pH = 9 [1]: 94%
pKa (pKa value): 8.37

CC(S)C(=O)N1CCCC(O)C1 (stereo not shown)
WSN pH = 7 [1]: 79%
WSN pH = 8 [1]: 94%
WSN pH = 9 [1]: 89%

CC(S)C(=O)N(CCO)C(C)C (stereo not shown) [N-Isopropyl,N-(2-hydroxyethyl)-2-mercaptopropionamide]
WSN pH = 7 [1]: 65%
WSN pH = 8 [1]: 88%
WSN pH = 9 [1]: 109%
melting point: 100 °C

CCN(CC)CCCNC(=O)C(C)S (stereo not shown) [N-(3-Diethylaminopropyl)-2-mercaptopropionamide]
WSN pH = 7 [1]: 77%
WSN pH = 8 [1]: 73%
WSN pH = 9 [1]: 81%
melting point: 65 °C

Thiolactic acid [reference compound]
WSN pH = 7 [1]: 57%
WSN pH = 8 [1]: 50%
WSN pH = 9 [1]: 70%

CCNCCNC(=O)C(C)S (stereo not shown) [N-(2-Ethylaminoethyl)-2-mercaptopropionamide]
WSN pH = 7 [1]: 57%
WSN pH = 8 [1]: 82%
WSN pH = 9 [1]: 60%

CC(S)C(=O)N1CCN(C)CC1 (stereo not shown) [N,N-(4-Methylaza-pentamethylene)-2-mercaptopropionamide]
WSN pH = 7 [1]: 78%
WSN pH = 8 [1]: 86%
WSN pH = 9 [1]: 78%

CCC(CO)NC(=O)C(C)S (stereo not shown) [N-(1-Hydroxymethylpropyl)-2-mercaptopropionamide]
WSN pH = 7 [1]: 73%
WSN pH = 8 [1]: 88%
WSN pH = 9 [1]: 85%

COCCN(CCOC)C(=O)C(C)S (stereo not shown) [N,N-Bis-(2-methoxyethyl)-2-mercaptopropionamide]
WSN pH = 7 [1]: 78%
WSN pH = 8 [1]: 93%
WSN pH = 9 [1]: 91%
melting point: 85 °C

CC(S)C(=O)NCCN1CCOCC1 (stereo not shown) [N-(2-Morpholinoethyl)-2-mercaptopropionamide]
WSN pH = 7 [1]: 85%
WSN pH = 8 [1]: 93%
WSN pH = 9 [1]: 92%

CCN(CCO)C(=O)C(C)S (stereo not shown) [N-Ethyl,N-(2-hydroxyethyl)-2-mercaptopropionamide]
WSN pH = 7 [1]: 94%
WSN pH = 8 [1]: 83%
WSN pH = 9 [1]: 114%
melting point: 95 °C

CCCN(CCO)C(=O)C(C)S (stereo not shown) [N-Propyl,N-(2-hydroxyethyl)-2-mercaptopropionamide]
WSN pH = 7 [1]: 77%
WSN pH = 8 [1]: 89%
WSN pH = 9 [1]: 99%
melting point: 80 °C

COCCNC(=O)C(C)S (stereo not shown) [N-(2-Methoxyethy)-2-mercaptopropionamide]
WSN pH = 7 [1]: 87%
WSN pH = 8 [1]: 99%
WSN pH = 9 [1]: 106%

COCCCNC(=O)C(C)S (stereo not shown) [N-(3-Methoxypropyl)-2-mercaptopropionamide]
WSN pH = 7 [1]: 79%
WSN pH = 8 [1]: 92%
WSN pH = 9 [1]: 91%
melting point: 97 °C

CCN(CC)CCNC(=O)C(C)S (stereo not shown) [N-(2-Diethylaminoethyl)-2-mercaptopropionamide]
WSN pH = 7 [1]: 71%
WSN pH = 8 [1]: 80%
WSN pH = 9 [1]: 77%
melting point: 74 °C

CC(S)C(=O)NCCN(C)C (stereo not shown) [N-(2-Dimethylaminoethyl)-2-mercaptopropionamide]
WSN pH = 7 [1]: 81%
WSN pH = 8 [1]: 87%
WSN pH = 9 [1]: 83%
melting point: 83 °C

CCC(O)CNC(=O)C(C)S (stereo not shown) [N-(2-Hydroxy-1-butyl)-2-mercaptopropionamide]
WSN pH = 7 [1]: 79%
WSN pH = 8 [1]: 91%
WSN pH = 9 [1]: 94%

CC(S)C(=O)NCCO (stereo not shown) [N-(2-Hydroxyethyl)-2-mercaptopropionamide]
WSN pH = 7 [1]: 84%
WSN pH = 8 [1]: 106%
WSN pH = 9 [1]: 103%

CC(S)C(=O)N(C)CCO (stereo not shown) [N-Methyl,N-(2-hydroxyethyl)-2-mercaptopropionamide]
WSN pH = 7 [1]: 72%
WSN pH = 8 [1]: 91%
WSN pH = 9 [1]: 91%
melting point: 95 °C

CC(S)C(=O)NCCCN(C)C (stereo not shown) [N-(3-Dimethylaminopropyl)-2-mercaptopropionamide]
WSN pH = 7 [1]: 72%
WSN pH = 8 [1]: 83%
WSN pH = 9 [1]: 95%
melting point: 84 °C

CC(S)C(=O)NCC1CCCO1 (stereo not shown) [N-Tetrahydrofurfuryl-2-mercaptopropionamide]
WSN pH = 7 [1]: 85%
WSN pH = 8 [1]: 88%
WSN pH = 9 [1]: 94%
melting point: 82 °C

CNCCCNC(=O)C(C)S (stereo not shown) [N-(3-Methylaminopropyl)-2-mercaptopropionamide]
WSN pH = 7 [1]: 55%
WSN pH = 8 [1]: 73%
WSN pH = 9 [1]: 78%

CC(S)C(=O)NCCCN (stereo not shown) [N-(3-Aminopropyl)-2-mercaptopropionamide]
WSN pH = 7 [1]: 67%
WSN pH = 8 [1]: 82%
WSN pH = 9 [1]: 88%

COCC(C)NC(=O)C(C)S (stereo not shown) [N-(1-Methoxy-2-propyl)-2-mercaptopropionamide]
WSN pH = 7 [1]: 91%
WSN pH = 8 [1]: 95%
WSN pH = 9 [1]: 99%
melting point: 60 °C
